Legend:
MOLT-4 [1] = assay: Growth inhibition of human MOLT4 cells assessed as cell growth at 5 uM incubated for 48 hrs by sulforhodamine B assay relative to control; type: functional; conditions: MOLT-4, 48 h, read-out: Activity
SR = assay: Growth inhibition of human SR cells assessed as cell growth at 0.5 uM incubated for 48 hrs by sulforhodamine B assay relative to control; type: functional; conditions: read-out: Activity
NCI-H23 = assay: Growth inhibition of human NCI-H23 cells assessed as cell growth at 50 uM incubated for 48 hrs by sulforhodamine B assay relative to control; type: functional; conditions: NCI-H23, 48 h, read-out: Activity
SNB-19 = assay: Growth inhibition of human SNB19 cells assessed as cell growth at 0.005 uM incubated for 48 hrs by sulforhodamine B assay relative to control; type: functional; conditions: SNB-19, 48 h, read-out: Activity
HOP-92 [2] = assay: Growth inhibition of human HOP92 cells assessed as cell growth at 0.05 uM incubated for 48 hrs by sulforhodamine B assay relative to control; type: functional; conditions: HOP-92, 48 h, read-out: Activity
OVCAR-4 = assay: Growth inhibition of human OVCAR4 cells assessed as cell growth at 0.05 uM incubated for 48 hrs by sulforhodamine B assay relative to control; type: functional; conditions: OVCAR-4, 48 h, read-out: Activity
NCI/ADR-RES = assay: Growth inhibition of human NCI/ADR-RES cells assessed as cell growth at 50 uM incubated for 48 hrs by sulforhodamine B assay relative to control; type: functional; conditions: read-out: Activity
HCT-15 = assay: Growth inhibition of human HCT15 cells assessed as cell growth at 50 uM incubated for 48 hrs by sulforhodamine B assay relative to control; type: functional; conditions: HCT-15, 48 h, read-out: Activity
Hs-578T = assay: Growth inhibition of human Hs 578T cells assessed as cell growth at 50 uM incubated for 48 hrs by sulforhodamine B assay relative to control; type: functional; conditions: read-out: Activity
RPMI-8226 = assay: Growth inhibition of human RPMI8226 cells assessed as cell growth at 0.05 uM incubated for 48 hrs by sulforhodamine B assay relative to control; type: functional; conditions: RPMI-8226, 48 h, read-out: Activity
OVCAR-8 = assay: Growth inhibition of human OVCAR8 cells assessed as cell growth at 0.05 uM incubated for 48 hrs by sulforhodamine B assay relative to control; type: functional; conditions: OVCAR-8, 48 h, read-out: Activity
COLO 205 = assay: Growth inhibition of human COLO205 cells assessed as cell growth at 50 uM incubated for 48 hrs by sulforhodamine B assay relative to control; type: functional; conditions: COLO 205, 48 h, read-out: Activity
UACC-62 = assay: Growth inhibition of human UACC62 cells assessed as cell growth at 0.5 uM incubated for 48 hrs by sulforhodamine B assay relative to control; type: functional; conditions: UACC-62, 48 h, read-out: Activity
BT-549 = assay: Growth inhibition of human BT549 cells assessed as cell growth at 5 uM incubated for 48 hrs by sulforhodamine B assay relative to control; type: functional; conditions: BT-549, 48 h, read-out: Activity
TK-10 = assay: Growth inhibition of human TK10 cells assessed as cell growth at 0.005 uM incubated for 48 hrs by sulforhodamine B assay relative to control; type: functional; conditions: TK-10, 48 h, read-out: Activity
MOLT-4 [3] = assay: Growth inhibition of human MOLT4 cells assessed as cell growth at 0.005 uM incubated for 48 hrs by sulforhodamine B assay relative to control; type: functional; conditions: MOLT-4, 48 h, read-out: Activity
A549 = assay: Growth inhibition of human A549/ATCC cells assessed as cell growth at 0.5 uM incubated for 48 hrs by sulforhodamine B assay relative to control; type: functional; conditions: A549, 48 h, read-out: Activity
EKVX [4] = assay: Growth inhibition of human EKVX cells assessed as cell growth at 0.05 uM incubated for 48 hrs by sulforhodamine B assay relative to control; type: functional; conditions: read-out: Activity
EKVX [5] = assay: Growth inhibition of human EKVX cells assessed as cell growth at 5 uM incubated for 48 hrs by sulforhodamine B assay relative to control; type: functional; conditions: read-out: Activity
SF-295 = assay: Growth inhibition of human SF295 cells assessed as cell growth at 0.5 uM incubated for 48 hrs by sulforhodamine B assay relative to control; type: functional; conditions: SF-295, 48 h, read-out: Activity
MCF7 = assay: Growth inhibition of human MCF7 cells assessed as cell growth at 0.05 uM incubated for 48 hrs by sulforhodamine B assay relative to control; type: functional; conditions: MCF7, 48 h, read-out: Activity
M14 = assay: Growth inhibition of human M14 cells assessed as cell growth at 0.05 uM incubated for 48 hrs by sulforhodamine B assay relative to control; type: functional; conditions: M14, 48 h, read-out: Activity
HOP-92 [6] = assay: Growth inhibition of human HOP92 cells assessed as cell growth at 0.5 uM incubated for 48 hrs by sulforhodamine B assay relative to control; type: functional; conditions: HOP-92, 48 h, read-out: Activity
IGROV-1 = assay: Growth inhibition of human IGROV1 cells assessed as cell growth at 5 uM incubated for 48 hrs by sulforhodamine B assay relative to control; type: functional; conditions: IGROV-1, 48 h, read-out: Activity
CAKI-1 = assay: Growth inhibition of human Caki1 cells assessed as cell growth at 0.005 uM incubated for 48 hrs by sulforhodamine B assay relative to control; type: functional; conditions: CAKI-1, 48 h, read-out: Activity
SK-MEL-5 = assay: Growth inhibition of human SK-MEL-5 cells assessed as cell growth at 5 uM incubated for 48 hrs by sulforhodamine B assay relative to control; type: functional; conditions: SK-MEL-5, 48 h, read-out: Activity
NCI-H460 = assay: Growth inhibition of human NCI-H460 cells assessed as cell growth at 0.5 uM incubated for 48 hrs by sulforhodamine B assay relative to control; type: functional; conditions: NCI-H460, 48 h, read-out: Activity
EKVX [7] = assay: Growth inhibition of human EKVX cells assessed as cell growth at 3 uM incubated for 48 hrs by sulforhodamine B assay relative to control; type: functional; conditions: read-out: Activity
[8] = biological target: Dual specificity mitogen-activated protein kinase kinase 1 (Homo sapiens) (UniProt Q02750); assay: Inhibition of human MEK1 at 10 uM using ERK2 as substrate in presence of [33P]ATP by Hotspot assay relative to control
Sequence of Dual specificity mitogen-activated protein kinase kinase 1 (Homo sapiens) (Q02750 whole entry): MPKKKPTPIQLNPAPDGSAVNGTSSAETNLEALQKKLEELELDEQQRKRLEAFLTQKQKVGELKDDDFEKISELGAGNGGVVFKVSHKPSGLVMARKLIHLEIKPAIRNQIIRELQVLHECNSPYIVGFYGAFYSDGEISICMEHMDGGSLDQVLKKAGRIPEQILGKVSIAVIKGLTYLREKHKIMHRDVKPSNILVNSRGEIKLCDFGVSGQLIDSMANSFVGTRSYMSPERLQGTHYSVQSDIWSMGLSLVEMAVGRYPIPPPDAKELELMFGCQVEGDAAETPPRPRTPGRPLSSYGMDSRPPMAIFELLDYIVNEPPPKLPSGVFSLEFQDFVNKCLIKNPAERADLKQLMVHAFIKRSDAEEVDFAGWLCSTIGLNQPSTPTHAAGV

[9] = biological target: Serine/threonine-protein kinase B-raf (Homo sapiens, UniProt P15056, V600E); assay: Inhibition of human BRAF V600E mutant using MEK1 as substrate in presence of [33P]ATP by Hotspot assay
Sequence of Serine/threonine-protein kinase B-raf (P15056 2-766 V600E limits assumed): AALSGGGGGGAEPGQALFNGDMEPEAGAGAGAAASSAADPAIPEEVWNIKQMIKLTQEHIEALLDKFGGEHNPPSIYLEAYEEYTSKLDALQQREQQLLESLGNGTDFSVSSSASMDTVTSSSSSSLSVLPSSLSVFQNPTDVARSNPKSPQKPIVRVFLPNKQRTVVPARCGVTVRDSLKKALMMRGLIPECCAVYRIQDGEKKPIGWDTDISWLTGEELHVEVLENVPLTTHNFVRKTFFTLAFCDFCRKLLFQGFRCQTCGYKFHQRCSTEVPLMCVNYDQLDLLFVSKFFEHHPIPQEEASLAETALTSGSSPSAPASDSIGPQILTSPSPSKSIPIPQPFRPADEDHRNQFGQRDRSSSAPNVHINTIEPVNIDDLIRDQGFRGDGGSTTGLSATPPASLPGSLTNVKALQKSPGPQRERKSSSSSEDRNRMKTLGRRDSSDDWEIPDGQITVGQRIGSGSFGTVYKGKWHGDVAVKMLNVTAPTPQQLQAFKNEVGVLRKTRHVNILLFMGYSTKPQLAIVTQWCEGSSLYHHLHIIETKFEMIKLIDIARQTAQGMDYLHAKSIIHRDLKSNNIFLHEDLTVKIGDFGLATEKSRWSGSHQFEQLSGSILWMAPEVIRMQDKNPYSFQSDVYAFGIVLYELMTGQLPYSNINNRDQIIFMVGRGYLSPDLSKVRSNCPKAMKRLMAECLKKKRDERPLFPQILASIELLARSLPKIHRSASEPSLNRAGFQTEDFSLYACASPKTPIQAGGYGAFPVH

LOX IMVI [10] = assay: Growth inhibition of human LOXIMVI cells assessed as cell growth at 0.3 uM incubated for 48 hrs by sulforhodamine B assay relative to control; type: functional; conditions: read-out: Activity
[11] = biological target: Tyrosine-protein kinase ABL1 (Homo sapiens) (UniProt P00519); assay: Inhibition of human ABL1 at 10 uM using EAIYAAPFAKKK as substrate in presence of [33P]ATP by Hotspot assay relative to control
Sequence of Tyrosine-protein kinase ABL1 (Homo sapiens) (P00519 whole entry): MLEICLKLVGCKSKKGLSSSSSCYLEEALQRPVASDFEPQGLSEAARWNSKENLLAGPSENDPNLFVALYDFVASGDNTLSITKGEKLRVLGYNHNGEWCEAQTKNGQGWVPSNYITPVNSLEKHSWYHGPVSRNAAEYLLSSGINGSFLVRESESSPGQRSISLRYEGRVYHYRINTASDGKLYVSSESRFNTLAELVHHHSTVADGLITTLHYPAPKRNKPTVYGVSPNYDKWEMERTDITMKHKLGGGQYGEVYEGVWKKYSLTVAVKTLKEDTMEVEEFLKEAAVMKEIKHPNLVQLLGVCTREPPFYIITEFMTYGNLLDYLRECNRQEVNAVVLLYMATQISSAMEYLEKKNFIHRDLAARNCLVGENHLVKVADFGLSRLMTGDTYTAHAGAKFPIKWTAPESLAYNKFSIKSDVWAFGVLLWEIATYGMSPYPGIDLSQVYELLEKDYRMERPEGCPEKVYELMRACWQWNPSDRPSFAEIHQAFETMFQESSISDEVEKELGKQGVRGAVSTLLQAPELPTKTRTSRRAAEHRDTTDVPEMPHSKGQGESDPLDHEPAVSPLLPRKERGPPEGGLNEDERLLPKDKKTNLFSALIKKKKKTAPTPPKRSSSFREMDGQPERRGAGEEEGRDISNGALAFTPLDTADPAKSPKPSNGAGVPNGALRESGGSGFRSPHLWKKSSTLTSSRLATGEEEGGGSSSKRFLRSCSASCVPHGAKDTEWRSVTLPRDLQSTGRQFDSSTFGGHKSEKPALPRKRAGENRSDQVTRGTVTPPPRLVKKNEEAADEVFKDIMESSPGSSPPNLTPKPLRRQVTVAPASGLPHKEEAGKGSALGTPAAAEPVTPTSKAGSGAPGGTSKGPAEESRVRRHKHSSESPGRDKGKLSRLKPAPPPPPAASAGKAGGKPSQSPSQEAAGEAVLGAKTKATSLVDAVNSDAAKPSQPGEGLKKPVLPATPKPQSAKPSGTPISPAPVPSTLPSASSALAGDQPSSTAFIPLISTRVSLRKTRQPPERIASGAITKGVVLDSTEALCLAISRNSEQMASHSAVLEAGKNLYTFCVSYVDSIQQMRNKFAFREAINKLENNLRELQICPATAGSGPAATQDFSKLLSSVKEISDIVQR

LOX IMVI [12] = assay: Growth inhibition of human LOXIMVI cells assessed as cell growth at 30 uM incubated for 48 hrs by sulforhodamine B assay relative to control; type: functional; conditions: read-out: Activity
EKVX [13] = assay: Growth inhibition of human EKVX cells assessed as cell growth at 30 uM incubated for 48 hrs by sulforhodamine B assay relative to control; type: functional; conditions: read-out: Activity

Work on `COc1cc2cc(Oc3ccc(NC(=O)Nc4cccc(C(F)(F)F)c4)cc3)c(C)nc2cc1OC` yielded a growth at 5 µM (MOLT-4 [1]) of 4%, a growth at 0.5 µM (SR) of 91% and a growth at 50 µM (NCI-H23) of -42%. For the same molecule, the growth at 0.005 µM (SNB-19) was 92%, the growth at 0.05 µM (HOP-92 [2]) was 96% and the growth at 0.05 µM (OVCAR-4) was 95%. It also gave a growth at 50 µM (NCI/ADR-RES) of -56%, a growth at 50 µM (HCT-15) of -10% and a growth at 50 µM (Hs-578T) of -41%. It also gave a growth at 0.05 µM (RPMI-8226) of 96%, a growth at 0.05 µM (OVCAR-8) of 103% and a growth at 50 µM (COLO 205) of -88%. For the same molecule, the growth at 0.5 µM (UACC-62) was 86%, the growth at 5 µM (BT-549) was 7% and the growth at 0.005 µM (TK-10) was 92%. The growth at 0.005 µM (MOLT-4 [3]) was 97%, the growth at 0.5 µM (A549) was 86% and the growth at 0.05 µM (EKVX [4]) was 102%. For the same molecule, the growth at 5 µM (EKVX [5]) was 6%, the growth at 0.5 µM (SF-295) was 86% and the growth at 0.05 µM (MCF7) was 91%. It also gave a growth at 0.05 µM (M14) of 84%, a growth at 0.5 µM (HOP-92 [6]) of 90% and a growth at 5 µM (IGROV-1) of 31%. For the same molecule, the growth at 0.005 µM (CAKI-1) was 98%, the growth at 5 µM (SK-MEL-5) was -35% and the growth at 0.5 µM (NCI-H460) was 96%.

With `COc1cc2cc(Oc3ccc(NC(=O)Nc4ccc(Cl)c(C(F)(F)F)c4)cc3)c(C)nc2cc1OC` the growth at 3 µM (EKVX [7]) was 5%, the inhibition [8] was -0.258% and the IC50 [9] was 260 nM. It also gave a growth at 0.3 µM (LOX IMVI [10]) of 101%, an inhibition [11] of -6.78% and a growth at 30 µM (LOX IMVI [12]) of -100%. The growth at 30 µM (EKVX [13]) was -70%.

Reference: ChEMBL document CHEMBL3994622, “Design and synthesis of new RAF kinase-inhibiting antiproliferative quinoline derivatives. Part 2: Diarylurea derivatives” (Eur J Med Chem, 2017)
